Test results reported in the NIST ThermoML archive (doi:10.1016/j.fluid.2014.11.020).
Numbers after ± are expanded uncertainties.

Assay: activity coefficient (dimensionless); of the first substance listed, at infinite dilution; xn = mol fraction of the nth substance listed
Settings: Liquid, Chromatography, x1 = 0

Row | SMILES | activity coefficient (323.15 K) | activity coefficient (333.15 K) | activity coefficient (343.15 K)
1 | C#CCCCCC [1-heptyne] + Cn1cc[n+](COCCCOC[n+]2ccn(C)c2)c1.O=S(=O)([N-]S(=O)(=O)C(F)(F)F)C(F)(F)F.O=S(=O)([N-]S(=O)(=O)C(F)(F)F)C(F)(F)F | 5.9 ± 0.4 | 6.09 ± 0.42 | 5.71 ± 0.39
2 | C#CCCCCC [1-heptyne] + N#C[N-]C#N.N#C[N-]C#N.c1ccc(Cn2cc[n+](COCCCOC[n+]3ccn(Cc4ccccc4)c3)c2)cc1 | 19.1 ± 1.3 | 17.2 ± 1.2 | 15.9 ± 1.1
3 | C#CCCCC [1-hexyne] + CCCCCCCCn1cc[n+](COCCC)c1C.N#C[N-]C#N | 1.73 ± 0.12 | 2.14 ± 0.15 | 2.01 ± 0.14
4 | C#CCCCC [1-hexyne] + CCCCCCCCn1cc[n+](COCCC)c1C.O=S(=O)([N-]S(=O)(=O)C(F)(F)F)C(F)(F)F | 1.39 ± 0.09 | 1.36 ± 0.09 | 1.34 ± 0.09
5 | C#CCCCC [1-hexyne] + CCCCCCCCn1cc[n+](COCCCOC[n+]2ccn(CCCCCCCC)c2C)c1C.N#C[N-]C#N.N#C[N-]C#N | 1.72 ± 0.12 | 1.68 ± 0.11 | 1.63 ± 0.11
6 | C#CCCCC [1-hexyne] + CCCCCCCCn1cc[n+](COCCCOC[n+]2ccn(CCCCCCCC)c2C)c1C.O=S(=O)([N-]S(=O)(=O)C(F)(F)F)C(F)(F)F.O=S(=O)([N-]S(=O)(=O)C(F)(F)F)C(F)(F)F | 1.13 ± 0.07 | 1.13 ± 0.07 | 1.14 ± 0.07
7 | C#CCCCC [1-hexyne] + CCCOC[n+]1ccc(N(C)C)cc1.O=S(=O)([N-]S(=O)(=O)C(F)(F)F)C(F)(F)F | 2.51 ± 0.17 | 2.5 ± 0.17 | 2.5 ± 0.17
8 | C#CCCCC [1-hexyne] + CCCOC[n+]1ccn(C)c1.F[B-](F)(F)F | 10.3 ± 0.7 | 10.1 ± 0.69 | 9.44 ± 0.64
9 | C#CCCCC [1-hexyne] + CCCOC[n+]1ccn(C)c1.N#C[N-]C#N | 6.98 ± 0.48 | 7.6 ± 0.52 | 
10 | C#CCCCC [1-hexyne] + CCCOC[n+]1ccn(C)c1.O=S(=O)([N-]S(=O)(=O)C(F)(F)F)C(F)(F)F | 3.39 ± 0.23 | 3.4 ± 0.23 | 3.4 ± 0.23
11 | C#CCCCC [1-hexyne] + CCCOC[n+]1ccn(Cc2ccccc2)c1.F[B-](F)(F)F | 5.61 ± 0.38 | 5.52 ± 0.38 | 5.42 ± 0.37
12 | C#CCCCC [1-hexyne] + CCCOC[n+]1ccn(Cc2ccccc2)c1.N#C[N-]C#N | 4.41 ± 0.3 | 4.29 ± 0.29 | 
13 | C#CCCCC [1-hexyne] + CCCOC[n+]1ccn(Cc2ccccc2)c1.O=S(=O)([N-]S(=O)(=O)C(F)(F)F)C(F)(F)F | 2.14 ± 0.15 | 2.35 ± 0.16 | 
14 | C#CCCCC [1-hexyne] + CN(C)c1cc[n+](COCCCOC[n+]2ccc(N(C)C)cc2)cc1.O=S(=O)([N-]S(=O)(=O)C(F)(F)F)C(F)(F)F.O=S(=O)([N-]S(=O)(=O)C(F)(F)F)C(F)(F)F | 3 ± 0.2 | 2.96 ± 0.2 | 2.92 ± 0.2
15 | C#CCCCC [1-hexyne] + Cn1cc[n+](COCCCOC[n+]2ccn(C)c2)c1.N#C[N-]C#N.N#C[N-]C#N | 15.8 ± 1.1 | 15.2 ± 1 | 14.6 ± 1
16 | C#CCCCC [1-hexyne] + Cn1cc[n+](COCCCOC[n+]2ccn(C)c2)c1.O=S(=O)([N-]S(=O)(=O)C(F)(F)F)C(F)(F)F.O=S(=O)([N-]S(=O)(=O)C(F)(F)F)C(F)(F)F | 3.81 ± 0.26 | 3.68 ± 0.25 | 3.4 ± 0.23
17 | C#CCCCC [1-hexyne] + N#C[N-]C#N.N#C[N-]C#N.c1ccc(Cn2cc[n+](COCCCOC[n+]3ccn(Cc4ccccc4)c3)c2)cc1 | 14.1 ± 0.96 | 11.7 ± 0.8 | 
18 | CCC[N+](=O)[O-] [1-nitropropane] + CCCCCCCCn1cc[n+](COCCC)c1C.N#C[N-]C#N | 0.76 ± 0.05 | 0.75 ± 0.05 | 0.75 ± 0.05
19 | CCC[N+](=O)[O-] [1-nitropropane] + CCCCCCCCn1cc[n+](COCCC)c1C.O=S(=O)([N-]S(=O)(=O)C(F)(F)F)C(F)(F)F | 0.54 ± 0.04 | 0.53 ± 0.04 | 0.53 ± 0.04
20 | CCC[N+](=O)[O-] [1-nitropropane] + CCCCCCCCn1cc[n+](COCCCOC[n+]2ccn(CCCCCCCC)c2C)c1C.N#C[N-]C#N.N#C[N-]C#N | 0.59 ± 0.04 | 0.58 ± 0.04 | 0.58 ± 0.04
21 | CCC[N+](=O)[O-] [1-nitropropane] + CCCCCCCCn1cc[n+](COCCCOC[n+]2ccn(CCCCCCCC)c2C)c1C.O=S(=O)([N-]S(=O)(=O)C(F)(F)F)C(F)(F)F.O=S(=O)([N-]S(=O)(=O)C(F)(F)F)C(F)(F)F | 0.34 ± 0.03 | 0.33 ± 0.03 | 0.32 ± 0.03
22 | CCC[N+](=O)[O-] [1-nitropropane] + CCCOC[n+]1ccc(N(C)C)cc1.O=S(=O)([N-]S(=O)(=O)C(F)(F)F)C(F)(F)F | 0.68 ± 0.05 | 0.69 ± 0.05 | 0.69 ± 0.05
